Paper PMC12871931, “The importin‐alpha superfamily engages in ethylene signaling by shuttling [sequence] INSENSITIVE 2 from the endoplasmic reticulum to the nucleus” (The Febs Journal, 2025)

How the values were obtained:
EIN2C^479–1294 = test: In planta FLIM‐FRET, EIN2C^479–1294‐CER donor, IMPα‐YFP acceptors; type: cell-based, Arabidopsis thaliana; conditions: mean, EIN2C^479–1294‐CER donor / IMPα‐YFP acceptor, N. benthamiana epidermal leaf cells
Excerpt: To further investigate the interaction between members of the IMPα superfamily and EIN2 in planta, we used in vivo fluorescence lifetime microscopy and Förster's resonance energy transfer (FLIM‐FRET). Accordingly, the C‐terminal part of EIN2 (EIN2C^479–1294) was fused to the fluorescent protein Cerulean (CER), serving as a donor, and the IMPα isoforms (IMPα1‐7) were fused to YELLOW FL[…] (YFP), serving as acceptors.
A modified version of a previously described procedure was used for the transient transformation of N. benthamiana. An overnight culture of agrobacteria was inoculated in DYT and incubated at 28°C one day before infiltration. […] For co‐infiltration, bacteria solutions were mixed in equal quantities, and Agrobacterium strain GV3101:p19 expressing the p19 silencing inhibitor was added to each mix. […]
Fluorescence lifetime imaging was performed using a protocol described previously. Fluorescence lifetime was measured at a Zeiss LSM 780 confocal microscope (40× water immersion objective, Zeiss C‐PlanApo, NA 1.2). […] Photons were detected in both donor and acceptor channels simultaneously with Tau‐SPADs (PicoQuant, Berlin, Germany). […] Internal response functions for each laser were determined by measuring the fluorescence decay of quenched Atto425 in saturated KI, using the same hardware settings as for the FRET pair of interest. […]

IMPα7_ΔIBB = biological target: T1, IMPα7_ΔIBB (Arabidopsis thaliana, UniProt Q9M9X7); test: biochemical; type: binding
T1 construct: hexa-His (TEV site between protein and tag) (C); made in house; host or cells: E. coli BL21gold
T1 sequence (Q9M9X7 57-528, stated change not applied): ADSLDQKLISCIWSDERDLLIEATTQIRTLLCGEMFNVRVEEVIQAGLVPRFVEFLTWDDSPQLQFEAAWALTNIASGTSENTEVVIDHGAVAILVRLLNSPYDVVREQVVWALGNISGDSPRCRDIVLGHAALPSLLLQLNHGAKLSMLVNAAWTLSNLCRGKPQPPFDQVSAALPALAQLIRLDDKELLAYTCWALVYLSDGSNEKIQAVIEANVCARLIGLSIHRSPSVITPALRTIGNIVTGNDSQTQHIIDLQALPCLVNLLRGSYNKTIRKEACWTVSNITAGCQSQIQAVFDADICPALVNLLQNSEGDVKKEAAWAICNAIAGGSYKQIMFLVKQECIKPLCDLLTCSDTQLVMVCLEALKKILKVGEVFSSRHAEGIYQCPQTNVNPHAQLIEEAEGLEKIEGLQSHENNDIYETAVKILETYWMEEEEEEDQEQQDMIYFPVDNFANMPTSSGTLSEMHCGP
Excerpt: Genes encoding several isoforms of the IMPα superfamily were either isolated from Arabidopsis thaliana (IMPα1, ‐2, ‐3, ‐4, ‐8) or synthetically produced by GenScript (IMPα5, ‐6, ‐7, ‐9) and cloned into the pETEV21a vector (modified version of the pET21a vector with an additional TEV cleavage site between the GOI and the His‐tag), which contains a C‐terminal hexa‐His‐tag. Only IMPα5 was additionally cloned into the pETEV16b vector (modified version of the pET16b vector with an additional TEV cleavage site between the GOI and the His‐tag), which contains an N‐terminal deca‐His‐tag (see Table S2 for primer list). The AtEIN2C^1215–1281 gene was cloned into the pETEV16b vector and additionally contained a GB1‐domain at the N terminus to enhance solubility. Most of the proteins were expressed in the E. coli BL21pRARE strain, while IMPα7, IMPα8, and ΔIBB_IMPα1 (lack of the IBB domain) were expressed using the E. coli BL21gold strain. The bacterial cultures were adjusted to an initial OD600 of 0.1 and grown in 2YT media at 37 °C until an OD600 between 0.6 and 0.8 was reached. Subsequently, the protein expression was induced with 0.5 mM IPTG. After two hours, the cells were harvested via centrifugation at 10,000 g for 10 min. IMPα5, IMPα6, IMPα7, IMPα8, ΔIBB_IMPα1, and GB1_AtEIN2C^1215–1281 were expressed at 16 °C overnight with the addition of 2% (v/v) ethanol. […]

[1] = system: Col‐0 (wild‐type) seedlings; test: Triple response assay, wild‐type; type: in vivo, Arabidopsis thaliana; conditions: dark‐grown, vs w/o ACC
Method: Around 10 mg of seeds was filled into a 2‐mL reaction tube and put into a desiccator with the lid opened. Additionally, a beaker with 100 mL 37% perchloric acid was put into the desiccator. 3 mL of 37% hydrochloric acid was pipetted into the beaker to start the reaction, and the lid of the desiccator was closed immediately. The seeds were incubated for 1 h. After the incubation time, the lid of the desiccator was opened slightly, while the tubes were incubated for 20 more minutes to wait for the gas to evaporate. 1 mL of sterile water was added to the reaction tubes, and the seeds were stratified by storage at 4 °C for 3 days before planting (otherwise they can be planted directly after this procedure). Before starting to plant the seeds, any material (e.g., pots and tubs) was sterilized with 70% ethanol. A mixture of soil, vermiculite, and sand (ratio 8:1:1) was prepared, and water was added in the right proportion to make the soil mix soggy but not mushy. The soil mix was sterilized by heating it in the microwave at 800 W for about 10 min. Pots were filled with the sterilized soil mix afterwards. Around 100 μL of 1% agarose in tap water was added to the reaction tubes containing the sterilized seedlings for better pipetting precision, and the seeds were planted into the soil mix. The growth of A. thaliana was performed at 22 °C, 60% humidity, and 100–120 μEinstein light intensity. The plants were watered only from the bottom every 2–3 days. After 5 weeks, the plants were big enough to grow in their own pots instead of several plants being grown crowded in one pot.
The triple response media for the agar plates was prepared by mixing 0.43% (w/v) of Murashige and Skoog (MS) salts and 1% (w/v) sucrose. The pH is adjusted to 6.0 before adding 0.7% (w/v) plant agar to the media and autoclaving it at 121 °C for 30 min. […] The seedlings were documented, and the length of the hypocotyl was analyzed using a binocular microscope and the software Motion 3.0, respectively. […]

[2] = system: triple impα loss‐of‐function mutant seedlings; test: Triple response assay, triple impα mutants; type: in vivo, Arabidopsis thaliana; conditions: 0.1 μM ACC, at least 20 seedlings per condition
Method: To gain further insights into the role of the IMPα superfamily for ethylene signaling, we studied multiple higher order IMPα loss‐of‐function mutants (Fig. 2). […] To check for potential differences in ethylene sensitivity, we supplemented the experiments from Fig. 2B with 0.1 and 1 μM ACC (Fig. 2C). […] These findings indicate that the mutation of three IMPα isoforms leads to diminished sensitivity in ethylene perception, supporting the pivotal role of the IMPα superfamily in ethylene signaling. However, no differences in ethylene sensing were observed among the various triple mutants, further reinforcing the hypothesis of IMPα redundancy in EIN2 transport. The deletion of an excessive number of IMPα isoforms is likely to have detrimental effects on regular plant growth and development, which has already been observed in the triple mutants (impα‐1;impα‐2;impα‐3). Due to the pivotal role of the IMPα‐IMPβ machinery in the nuclear transport of a large number of cargo proteins, we adopted an alternative strategy to investigate the role of IMPα proteins in plant ethylene signal transduction by testing their physical interaction with the ethylene key regulator EIN2.
(§1) Around 10 mg of seeds was filled into a 2‐mL reaction tube and put into a desiccator with the lid opened. Additionally, a beaker with 100 mL 37% perchloric acid was put into the desiccator. […]

[3] = system: ein2‐1 loss‐of‐function mutant seedlings; test: Triple response assay, ethylene‐insensitive mutant; type: in vivo, Arabidopsis thaliana; conditions: ein2‐1, dark‐grown, ACC in agar vs w/o ACC
Excerpt: In the presence of ethylene, dark‐grown seedlings display the characteristic phenotypic responses known as triple response. We hypothesized that nucleocytoplasmic transport and nuclear import of the EIN2 cytosolic part (CEND), which bridges ethylene signal transduction from the ER membrane to the nucleus, are mediated by the IMPα‐IMPβ transport machinery. This hypothesis is supported by the previously identified NLS motif in the EIN2 C terminus. To investigate whether any of the IMPα isoforms are implicated in ethylene signaling, A. thaliana Col‐0 (wild‐type; positive control), single loss‐of‐function mutants of the IMPα isoforms (impα1‐impα9) obtained from the Nottingham Arabidopsis Stock Centre (NASC), and ethylene‐insensitive mutant ein2‐1 (negative control) were grown in the dark in the presence of the ethylene precursor 1‐aminocyclopropane‐1‐carboxylate (ACC) and subsequently analyzed for their triple response. […] The findings on the single impα mutants indicate that nucleocytoplasmic transport and nuclear import of EIN2 CEND cannot be attributed to a single IMPα isoform, possibly because of functional redundancy among the IMPα isoforms.
as §1

IMPα4: A. thaliana IMPα4 fused to YFP, FRET acceptor
FRET efficiency (EIN2C^479–1294): 4.6%

CC(C)C[C@H](NC(=O)[C@H](CCCNC(=N)N)NC(=O)[C@H](CCCNC(=N)N)NC(=O)[C@H](CCCCN)NC(=O)[C@H](Cc1ccc(O)cc1)NC(=O)[C@H](CCCNC(=N)N)NC(=O)[C@H](CCCCN)NC(=O)[C@H](CC(C)C)NC(=O)c1ccc2c(c1)C(=O)OC21c2ccc(N(C)C)cc2Oc2cc(N(C)C)ccc21)C(=O)O [TAMRA‐NOP‐1]
Kd (IMPα7_ΔIBB): 3 ± 0.3 µM

NC1(C(=O)O)CC1 [ACC, 1‐aminocyclopropane‐1‐carboxylic acid]
reduction in hypocotyl length ([1]; Col‐0, 0.1 μM ACC): 21% | reduction in hypocotyl length ([1]; Col‐0, 1 μM ACC): 55.5% | reduction in hypocotyl length ([1]; Col‐0, 10 μM ACC): 56.5% | reduction in hypocotyl length (maximum among triple mutants) [2]: ≤ 7.5% | decrease in hypocotyl length [3]: 10%
